Test results reported in publication PMC6508677, “Identification of druggable small molecule antagonists of the Plasmodium falciparum hexose transporter PfHT and assessment of ligand access to the glucose permeation pathway via FLAG-mediated protein engineering” (PLoS ONE, 2019).

Target: T1, hGLUT1 (Homo sapiens, UniProt P11166)
T1 construct: expressed in transfected cells; host or cells: HEK293 (HEK293-FLIP); native hGLUT1 not knocked down in this line
T1 sequence (P11166 1-492): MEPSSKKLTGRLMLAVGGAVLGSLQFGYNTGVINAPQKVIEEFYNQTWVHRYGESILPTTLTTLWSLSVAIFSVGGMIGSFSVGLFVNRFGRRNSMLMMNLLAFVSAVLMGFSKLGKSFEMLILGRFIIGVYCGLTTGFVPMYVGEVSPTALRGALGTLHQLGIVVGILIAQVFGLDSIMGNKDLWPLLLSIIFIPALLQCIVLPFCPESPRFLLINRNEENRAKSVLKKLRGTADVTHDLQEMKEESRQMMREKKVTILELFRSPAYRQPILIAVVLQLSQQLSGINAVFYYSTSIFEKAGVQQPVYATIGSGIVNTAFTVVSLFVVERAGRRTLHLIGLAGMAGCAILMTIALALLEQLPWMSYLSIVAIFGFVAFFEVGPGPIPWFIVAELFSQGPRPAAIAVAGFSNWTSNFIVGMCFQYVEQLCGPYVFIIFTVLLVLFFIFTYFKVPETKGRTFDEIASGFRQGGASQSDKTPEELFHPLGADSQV
Assay: 2-DG uptake by HEK293 cells overexpressing hGLUT1
Assay type: cell-based
Details: for IC50 for inhibition of 2-DG uptake: GLUT1 cell line; for inhibition at 5 µM: 5 μM compound
Description: Generation of HEK293 cells overexpressing PfHT and human GLUTs 1–4 were described elsewhere. Briefly, HEK293 cells were transfected with pcDNA3.1 FLII12Pglu-7006 (Addgene), containing the fluorescence resonance energy transfer (FRET) glucose sensor (HEK293-FLIP) and PfHT, human GLUT1 (hGLUT1), hGLUT2, hGLUT3, hGLUT4, hGLUT5 or hGLUT8 using Optifect (Life Technologies) according to manufacturer’s specifications. To increase retention of GLUT8 at the plasma membrane, the dileucine sorting signal E^7E^8XXXLL was modified to R^7R^8XXXLL as described in [17]. Stable transfectants were selected for G418 and hygromycin resistance to select for FRET sensor and hexose transporter, respectively. HEK293-FLIP cells were also used to generate cells stably transfected with FLAG-tagged PfHT (FTPfHT). FLAG tag ([…]) followed by a triple glycine linker and a tobacco etch virus (TEV) protease site (ENLYFQS) followed by a triple glycine linker was added to the N-terminus of PfHT via PCR [18] using Phusion Hot Start II High-Fidelity DNA Polymerase (Fisher Scientific). Single clones were selected by comparing their abilities to transport glucose as assayed via FRET and radiolabeled hexose uptake. In all cell lines, except for HEK293 cells overexpressing hGLUT1 and hGLUT5, native hGLUT1 was knocked down using shRNA as described elsewhere. Transcript levels of the individual GLUTs expressed in each cell line are as described in [13, 15] and in S1 Fig.
Glucose uptake by P. falciparum was performed essentially as described. P. falciparum strain 3D7 was cultured in 100 mm tissue culture dishes (Techno Plastic Products) in a 2% suspension of human erythrocytes and RPMI 1640 medium until reaching > 7.5% parasitemia. Cells were pelleted via centrifugation and resuspended in RPMI 1640 medium. To determine the uptake of radiolabeled glucose into the parasite, parasites were isolated from infected erythrocytes by permeablization with saponin (0.05 w/v), followed by centrifugation, aspiration of supernatant and washing of the pellet 3X with saline solution (135 mM NaCl, 2 mM KCl, 25 mM HEPES, 0.2 mM glucose and 1 mM MgCl2; pH 7.1) to remove cellular debris. WU-1 or DMSO vehicle were added to 100 μl parasites (resuspended in saline) 5 min prior to the addition of 100 μl [^14C]2-DOG (0.2- μCi/ml final concentration). 2-DG uptake was stopped after 2 min by layering the entire reaction over 300 μl of an oil mixture (5:4 mix of dibutyl phthalate / dinonyl phthalate) in Eppendorf tubes and centrifuged at 15,850 × g for 2 mins. The ratio of the estimated intracellular concentration of radiolabel relative to the extracellular concentration were calculated as described. Uptake of radiolabeled hexose into HEK293 cells was measured in glucose-free HBSS as described previously. Briefly, cells were plated at 400,000 cells/well overnight at 37°C in 24-well plates pre-treated with PEI. After 30-min incubation at 37°C in glucose-free HBSS in the presence of vehicle or increasing concentrations of compound, 2-DG uptake was measured in glucose-free HBSS for 4 min at 37°C. Cultures were washed in ice-cold 1X PBS and lysed in 0.1% Triton X-100 in 1X PBS. Radiolabeled hexose uptake was determined by liquid scintillation counting (Ultima Gold, Thermo Fisher) and normalized to total protein per well. Uptake data are plotted as percent uptake relative to vehicle-treated cells. Kinetic analyses were performed using the indicated concentrations of substrate and WU-1, with quenching of uptake after 1 min incubation. Incubation times had been previously determined as being in the linear range of time-dependent radiolabeled hexose uptake (2 min for 2-DG uptake into freed parasites; 2 and 4 min for D-Frc and 2-DG uptake HEK cell lines, respectively). Data were fit by least squares nonlinear regression analysis using GraphPad Prism 6.0 software.

[1] = HEK293, 4 min, GLUT1, read-out: % Inhibition of 2-DG uptake vs vehicle

SMILES | 2-DG uptake (percent uptake relative to vehicle) (GLUT1, 0.001 µM compound) | 2-DG uptake (percent uptake relative to vehicle) (GLUT1, 1.25 µM compound) | 2-DG uptake (percent uptake relative to vehicle) (GLUT1, 2.5 µM compound) | 2-DG uptake (percent uptake relative to vehicle) (GLUT1, 5 µM compound) | 2-DG uptake (percent uptake relative to vehicle) (GLUT1, 10 µM compound) | 2-DG uptake (percent uptake relative to vehicle) (GLUT1, 20 µM compound) | 2-DG uptake (percent uptake relative to vehicle) (GLUT1, 40 µM compound) | 2-DG uptake (percent uptake relative to vehicle) (GLUT1, 80 µM compound) | 2-DG uptake (percent uptake relative to vehicle) (GLUT1, 160 µM compound) | 2-DG uptake (percent uptake relative to vehicle) (GLUT1, 225 µM compound) | IC50 for inhibition of 2-DG uptake | inhibition at 5 µM [1] [%] | inhibition at 2.5 µM (HEK293, 4 min, GLUT1, 2.5 μM compound, read-out: % Inhibition of 2-DG uptake vs vehicle) [%] | inhibition at 10 µM (HEK293, 4 min, GLUT1, 10 μM compound, read-out: % Inhibition of 2-DG uptake vs vehicle) [%]
COc1c(Br)cc([N+](=O)[O-])c(OC)c1C(=O)NC(=O)Nc1c(C)cccc1Cl [WU-2, 3-(3-bromo-2,6-dimethoxy-5-nitrobenzoyl)-1-(2-chloro-6-methylphenyl)urea] | 100 | 114.79 | 107.57 | 107.75 | 114.4 | 108.02 | 132.21 | 130.08 | 118.85 | 129.55 | n.i. | -7.75 |  | 
Cc1ccc(S(=O)(=O)CCNC(=O)c2c(-c3c(Cl)cccc3Cl)noc2C)cc1 [WU-1, 3-(2,6-dichlorophenyl)-5-methyl-N-[2-(4-methylbenzenesulfonyl)ethyl]-1,2-oxazole-4-carboxamide] | 100 | 99.74 | 109.88 | 102.1 | 100.82 | 110.03 | 120.62 | 121.35 | 125.18 | 132.09 | n.i. | -2.1 |  | 
COc1cc(/C=C2\COC/C(=C\c3cc(OC)c(OC)c(OC)c3)C2=O)cc(OC)c1OC [WU-5, (3E,5E)-3,5-bis[(3,4,5-trimethoxyphenyl)methylidene]oxan-4-one] |  |  |  |  |  |  |  |  |  |  |  |  | 2.94 | 
COc1cc(/C=N/NC(=O)c2cc(-c3ccccc3)sc2N)cc(OC)c1OC [WU-3, 2-amino-5-phenyl-N'-[(E)-(3,4,5-trimethoxyphenyl)methylidene]thiophene-3-carbohydrazide] |  |  |  |  |  |  |  |  |  |  |  |  |  | ≥ 50
